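How tested: cells in 96-well plates exposed to compound for 48 hours at five concentrations. GI50 marks 50% less growth.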 Active and inactive are the calls of the source. No stated cut-off is given here; in the data, active = GI50 up to about 1.1 µM and inactive = higher.
What was measured:
Test in all cases: NCI tumour cell line growth inhibition, 48 h
NCI-H226 = test system: NCI-H226
HCT-116 = test system: HCT-116
A498 = test system: A498
KM12 = test system: KM12
K562 = test system: K562
COLO 205 = test system: COLO 205
OVCAR-5 = test system: OVCAR-5
SW-620 = test system: SW-620
MDA-N = test system: MDA-N
OVCAR-8 = test system: OVCAR-8
OVCAR-3 = test system: OVCAR-3
SK-MEL-28 = test system: SK-MEL-28
SNB-75 = test system: SNB-75
ACHN = test system: ACHN
SK-OV-3 = test system: SK-OV-3
HT-29 = test system: HT-29
T47D = test system: T47D
SK-MEL-5 = test system: SK-MEL-5
CAKI-1 = test system: CAKI-1
MCF7 = test system: MCF7
NCI-H522 = test system: NCI-H522
786-0 = test system: 786-0
SR = test system: SR
SF-295 = test system: SF-295
NCI-H23 = test system: NCI-H23
SN12C = test system: SN12C
DU-145 = test system: DU-145
RPMI-8226 = test system: RPMI-8226
HOP-62 = test system: HOP-62
MOLT-4 = test system: MOLT-4
LOX IMVI = test system: LOX IMVI
M14 = test system: M14
Malme-3M = test system: Malme-3M
MDA-MB-435 = test system: MDA-MB-435
Hs-578T = test system: Hs-578T
SK-MEL-2 = test system: SK-MEL-2
NCI-H460 = test system: NCI-H460
U-251 = test system: U-251
IGROV-1 = test system: IGROV-1
UO-31 = test system: UO-31
TK-10 = test system: TK-10
MDA-MB-231 = test system: MDA-MB-231
OVCAR-4 = test system: OVCAR-4
PC-3 = test system: PC-3
SF-539 = test system: SF-539
HOP-92 = test system: HOP-92
HCT-15 = test system: HCT-15
SF-268 = test system: SF-268
EKVX = test system: EKVX
UACC-257 = test system: UACC-257
SNB-19 = test system: SNB-19
BT-549 = test system: BT-549
NCI/ADR-RES = test system: NCI/ADR-RES
RXF 393 = test system: RXF 393
A549 = test system: A549
HL-60 = test system: HL-60
CCRF-CEM = test system: CCRF-CEM
UACC-62 = test system: UACC-62

CN(NC(=O)/C(=C/C=C/c1ccccc1)NC(=O)c1ccccc1)C1=C(Cl)C(=O)[N+](c2ccccc2)=CC1
GI50 (NCI-H226): 17.9 µM (inactive) | GI50 (HCT-116): 20.1 µM (inactive) | GI50 (A498): 39.4 µM (inactive) | GI50 (KM12): 16.7 µM (inactive) | GI50 (K562): 19.9 µM (inactive) | GI50 (COLO 205): 17.5 µM (inactive) | GI50 (OVCAR-5): > 100 µM (inactive) | GI50 (SW-620): 16.4 µM (inactive) | GI50 (MDA-N): 18.2 µM (inactive) | GI50 (OVCAR-8): 21.1 µM (inactive) | GI50 (OVCAR-3): 20.8 µM (inactive) | GI50 (SK-MEL-28): 16.9 µM (inactive) | GI50 (SNB-75): 21.6 µM (inactive) | GI50 (ACHN): 26.7 µM (inactive) | GI50 (SK-OV-3): > 100 µM (inactive) | GI50 (HT-29): 29.2 µM (inactive) | GI50 (T47D): 15.7 µM (inactive) | GI50 (SK-MEL-5): 14.4 µM (inactive) | GI50 (CAKI-1): 35.4 µM (inactive) | GI50 (MCF7): 16.7 µM (inactive) | GI50 (NCI-H522): 23.3 µM (inactive) | GI50 (786-0): 19.4 µM (inactive) | GI50 (SR): 21.4 µM (inactive) | GI50 (SF-295): 35 µM (inactive) | GI50 (NCI-H23): 35.4 µM (inactive) | GI50 (SN12C): 24.8 µM (inactive) | GI50 (DU-145): 33 µM (inactive) | GI50 (RPMI-8226): 23.9 µM (inactive) | GI50 (HOP-62): 21.7 µM (inactive) | GI50 (MOLT-4): 24.3 µM (inactive) | GI50 (LOX IMVI): 17.3 µM (inactive) | GI50 (M14): 18.1 µM (inactive) | GI50 (Malme-3M): 37.9 µM (inactive) | GI50 (MDA-MB-435): 17 µM (inactive) | GI50 (Hs-578T): 42.7 µM (inactive) | GI50 (SK-MEL-2): 26.2 µM (inactive) | GI50 (NCI-H460): 37.6 µM (inactive) | GI50 (U-251): 19.8 µM (inactive) | GI50 (IGROV-1): 12.1 µM (inactive) | GI50 (UO-31): 26.5 µM (inactive) | GI50 (TK-10): 55.2 µM (inactive) | GI50 (MDA-MB-231): 18.4 µM (inactive) | GI50 (OVCAR-4): 22.4 µM (inactive) | GI50 (PC-3): 35.7 µM (inactive) | GI50 (SF-539): 19.7 µM (inactive) | GI50 (HOP-92): 20.5 µM (inactive) | GI50 (HCT-15): 24.2 µM | GI50 (SF-268): 29.6 µM (inactive) | GI50 (EKVX): 35.8 µM (inactive) | GI50 (UACC-257): 41.2 µM (inactive) | GI50 (SNB-19): 25.4 µM (inactive) | GI50 (BT-549): 22.5 µM (inactive) | GI50 (NCI/ADR-RES): 20.7 µM (inactive) | GI50 (RXF 393): 20.1 µM (inactive) | GI50 (A549): 26.3 µM (inactive)

O=C(O)CCNCC(=O)O
GI50 (NCI-H226): > 100 µM (inactive) | GI50 (HCT-116): > 100 µM (inactive) | GI50 (A498): > 100 µM (inactive) | GI50 (KM12): > 100 µM (inactive) | GI50 (K562): > 100 µM (inactive) | GI50 (COLO 205): > 100 µM (inactive) | GI50 (OVCAR-5): > 100 µM (inactive) | GI50 (SW-620): > 100 µM (inactive) | GI50 (MDA-N): > 100 µM (inactive) | GI50 (OVCAR-8): > 100 µM (inactive) | GI50 (OVCAR-3): > 100 µM (inactive) | GI50 (SK-MEL-28): > 100 µM (inactive) | GI50 (SNB-75): > 100 µM (inactive) | GI50 (HL-60): > 100 µM (inactive) | GI50 (ACHN): > 100 µM (inactive) | GI50 (SK-OV-3): > 100 µM (inactive) | GI50 (HT-29): > 100 µM (inactive) | GI50 (T47D): > 100 µM (inactive) | GI50 (SK-MEL-5): > 100 µM (inactive) | GI50 (CAKI-1): > 100 µM (inactive) | GI50 (MCF7): > 100 µM (inactive) | GI50 (NCI-H522): > 100 µM (inactive) | GI50 (786-0): > 100 µM (inactive) | GI50 (SR): > 100 µM (inactive) | GI50 (SF-295): > 100 µM (inactive) | GI50 (NCI-H23): > 100 µM (inactive) | GI50 (SN12C): > 100 µM (inactive) | GI50 (DU-145): > 100 µM (inactive) | GI50 (RPMI-8226): > 100 µM (inactive) | GI50 (HOP-62): > 100 µM (inactive) | GI50 (CCRF-CEM): > 100 µM (inactive) | GI50 (MOLT-4): > 100 µM (inactive) | GI50 (LOX IMVI): > 100 µM (inactive) | GI50 (M14): > 100 µM (inactive) | GI50 (Malme-3M): > 100 µM (inactive) | GI50 (MDA-MB-435): > 100 µM (inactive) | GI50 (Hs-578T): > 100 µM (inactive) | GI50 (SK-MEL-2): > 100 µM (inactive) | GI50 (NCI-H460): > 100 µM (inactive) | GI50 (U-251): > 100 µM (inactive) | GI50 (IGROV-1): > 100 µM (inactive) | GI50 (UO-31): > 100 µM (inactive) | GI50 (UACC-62): > 100 µM (inactive) | GI50 (TK-10): > 100 µM (inactive) | GI50 (MDA-MB-231): > 100 µM (inactive) | GI50 (PC-3): > 100 µM (inactive) | GI50 (SF-539): > 100 µM (inactive) | GI50 (HOP-92): > 100 µM (inactive) | GI50 (HCT-15): > 100 µM | GI50 (SF-268): > 100 µM (inactive) | GI50 (EKVX): > 100 µM (inactive) | GI50 (UACC-257): > 100 µM (inactive) | GI50 (SNB-19): > 100 µM (inactive) | GI50 (BT-549): > 100 µM (inactive) | GI50 (NCI/ADR-RES): > 100 µM (inactive) | GI50 (RXF 393): > 100 µM (inactive) | GI50 (A549): > 100 µM (inactive)

— ChEMBL document CHEMBL1201862, “PubChem BioAssay data set” (2004)
